According to US9095581B2, “Combinations of MEK inhibitors and Raf kinase inhibitors and uses thereof” (Ardea Biosciences, Inc., priority 2008, dated 2015):

Tests used:
Hep3B cells = test: In vitro cell proliferation assay of Hep3B cell line, compound A with other anticancer agents (Example 6B); format: cell-based, human; conditions: agent in combination with compound A; 3, 4 or 6 days
Protocol: Cell culture/Growth Inhibition Assay: Human hepatocelluar carcinoma Hep3B cells were obtained from ATCC (Manassas, Va.). Hep3B cells were maintained in EMEM supplemented with 10% fetal bovine serum, penicillin (100 U/ml), and streptomycin (100 μg/ml). Cells were maintained at 37° C., 5% CO2, and 100% humidity. For cell proliferation experiments, cells were plated in white 96-well plates with clear bases at either 3000 cells/100 μl/well, 2000 cells/100 μl/well or 1000 cells/100 μl/well and treated as follows for 3 days, 4 days, or 6 days respectively. […] Following incubation for the indicated time at 37° C., ATP levels were determined using CellTiterGlo (Promega, Madison, Wis.) and reading luminescence values using a Lit Biosystems Analyst HT (Sunnyvale, Calif.). The ATP level for each dose combination was determined in triplicate using independent wells, and the experiment was performed several times. […] For comparison, the dose response for each single agent was also determined. The relative cell proliferation number was determined with the following formula: […]

Hep3B Hepatoma cells = test: In vitro cell proliferation assay of Hep3B cell line (CellTiterGlo ATP levels); format: cell-based, human; conditions: sorafenib alone
Protocol: The effect of compound A in combination with sorafenib was examined in a cell line derived from a human hepatocellular carcinoma in a cell proliferation assay.
Cell culture/Growth Inhibition Assay: Human hepatocelluar carcinoma Hep3B cells were obtained from ATCC (Manassas, Va.). Hep3B cells were maintained in EMEM supplemented with 10% fetal bovine serum, penicillin (100 U/ml), and streptomycin (100 μg/ml). Cells were maintained at 37° C., 5% CO2, and 100% humidity. For cell proliferation experiments, cells were plated in white 96-well plates with clear bases at either 3000 cells/100 μl/well, 2000 cells/100 μl/well or 1000 cells/100 μl/well and treated as follows for 3 days, 4 days, or 6 days respectively. After 24 hr, cell media was removed and replaced with media containing combinations of compound A of formula I and sorafenib. Following incubation for the indicated time at 37° C., ATP levels were determined using CellTiterGlo (Promega, Madison, Wis.) and reading luminescence values using a LJL Biosystems Analyst FIT (Sunnyvale, Calif.). The ATP level for each dose combination was determined in triplicate using independent wells, and the experiment was performed several times. […] For comparison, the dose response for each single agent was also determined. The relative cell proliferation number was determined with the following formula: […]

[1] = test system: human gastric adenocarcinoma cell line AGS; test: In vitro cell proliferative activity of AGS cell line (CellTiterGlo ATP levels); format: cell-based
Protocol: The effect of compound A in combination with sorafenib was examined in a cell line derived from a human gastric adenocarcinoma, in a cell proliferation assay.
Cell culture/Growth Inhibition Assay: The human gastric adenocarcinoma cell line AGS was obtained from ATCC (Manassas, Va.). AGS cells were maintained in DMEM/F12 supplemented with 10% fetal bovine serum, penicillin (100 U/ml), and streptomycin (100 μg/ml). Cells were maintained at 37° C., 5% CO2, and 100% humidity. For cell proliferation experiments, cells were plated in white 96-well plates with clear bases at 3000 cells/100 μl/well. After 24 hr, cell media was removed and replaced with media containing combinations of 621119 and sorafenib. Following incubation for 48 hours at 37° C., ATP levels were determined using CellTiterGlo (Promega, Madison, Wis.) and reading luminescence values using a LJL Biosystems Analyst HT (Sunnyvale, Calif.). The ATP level for each dose combination was determined in triplicate using independent wells, and the experiment was performed several times. For synergy experiments, either 621119 or sorafenib was dosed at a fixed, subefficacious dose, while the second agent (sorafenib or 621119 respectively) was added across a range of doses. For comparison, the dose response for each single agent was also determined. The relative cell proliferation number was determined with the following formula: […]

SMILES: Nc1ccn([C@@H]2O[C@H](CO)[C@@H](O)C2(F)F)c(=O)n1 [Gemcitabine]
- synergy with compound A in cell proliferation (Hep3B cells): no synergy

SMILES: Cc1ccc(NC(=O)c2ccc(CN3CCN(C)CC3)cc2)cc1Nc1nccc(-c2cccnc2)n1 [Imatinib]
- synergy with compound A in cell proliferation (Hep3B cells): no synergy

SMILES: CS(=O)(=O)CCNCc1ccc(-c2ccc3ncnc(Nc4ccc(OCc5cccc(F)c5)c(Cl)c4)c3c2)o1 [Lapatinib]
- synergy with compound A in cell proliferation (Hep3B cells): no synergy

SMILES: CCCCCCCCCCCCCCCCCCOP(=O)([O-])OC1CC[N+](C)(C)CC1 [Perifosine]
- synergy with compound A in cell proliferation (Hep3B cells): no synergy

SMILES: O=C(CCCCCCC(=O)Nc1ccccc1)NO [Vorinostat]
- synergy with compound A in cell proliferation (Hep3B cells): no synergy

SMILES: CNC(=O)c1cc(Oc2ccc(NC(=O)Nc3ccc(Cl)c(C(F)(F)F)c3)cc2)ccn1 [sorafenib, 4-[4-[[4-chloro-3-(trifluoromethyl)phenyl]carbamoylamino]phenoxy]-N-methyl-pyridine-2-carboxamide]
- inhibition of cell proliferation (Hep3B Hepatoma cells; 2 μM and lower, after 4 days (FIG. 8C)): little or no inhibition
- inhibition of cell proliferation (Hep3B Hepatoma cells; 5 μM and lower, after 3 days (FIG. 8A)): little activity
- inhibition of cell proliferation (cell number relative to vehicle) ([1]; sorafenib alone at 5 uM, after 48 hours (FIG. 9B)): little activity
- inhibition of cell proliferation (relative cell number) ([1]; sorafenib alone, 5 uM and lower, after 48 hours (FIG. 9A)): little activity
